Test results: US5902826A, “Platinum (IV) complex and pharmaceutical composition comprising the same” (SS Pharmaceutical Co., Ltd., priority 1997, dated 1999)

What was measured:
[1] = system: mouse M5076 tumor (M5076 reticulosarcoma); test: Antitumor effect on mouse M5076 tumor (M5076 reticulosarcoma), s.c.-p.o.; type: in vivo; details: for dosage of GImax (in parentheses): dosage giving GImax, no mortal case; for dosage of GImax (in parentheses) / ID50 (dosage by which the GI value after 5 administrations shows 50%): p.o. once a day for 5 days; for GImax (maximum growth inhibition rate in the dosage range by which no mortal case can be found): male BDF1 mouse, 1×10^6 cells s.c., drug p.o. once a day for 5 days, 30 days of observation, average tumor weights vs non-treated group; for ID50 (dosage by which the GI value after 5 administrations shows 50%): calculated from linear regression line of GI at each dosage; for TI (therapeutic index): calculated from LD50 (single i.p.) and ID50 (p.o.)
Method: Test on antitumor effect on mouse M5076 tumor
A total of 1×10^6 cells of mouse M5076 tumor were transplanted subcutaneously (s.c.) of a 6-week age male BDF1 mouse, a drug (compound of the present invention) was administered orally (p.o.) once a day for 5 days starting on the next day and then, after 30 days of observation, growth inhibition rate (GI) was calculated from the average tumor weights in the drug-treated group and the non-treated group. […] Each of the drugs to be tested was prepared just before its use by dissolving or suspending the drug (compound of the present invention) in olive oil using a handy sonicator. The dosage was 0.1 ml per 10 g mouse body weight. In Table 1, GImax is the maximum value (%) of GI in the dosage range by which no mortal case can be found, and its dosage (mg/kg) is shown in parentheses.

[2] = background statement, cited from earlier work
[3] = LD50 (50% lethal dose by single intraperitoneal administration); type: in vivo, mouse; details: 50% lethal dose by single intraperitoneal administration, obtained at the time of dose setting
[4] = background statement, derivative of cisplatin; cited from earlier work

Row | Compound | dosage of GImax (in parentheses) [1] | GImax (maximum growth inhibition rate in the dosage range by which no mortal case can be found) [1] | ID50 (dosage by which the GI value after 5 administrations shows 50%) [1] | nephropathy as a side effect [2] | LD50 [3] | TI (therapeutic index) [1] | renal toxicity ([2]; derivative of cisplatin) | solubility in water [4]
1 | N.N.[Cl][Pt][Cl] [Cisplatin, cisplatin, reference compound] | 8.0 mg/kg | 74.5% | 3.2 mg/kg | sometimes causes serious nephropathy | – | – | – | –
2 | O=C(OC1C[NH2+][Pt-2]2([O]C(=O)C(F)(F)F)([O]C(=O)C(F)(F)F)([NH2+]C1)[O]C(=O)C1(CCC1)C(=O)[O]2)C(F)(F)F (stereo not drawn) [Compound 11, 1,1-cyclobutanedicarboxylato trans-bis(trifluoroacetato) (O-trifluoroacetyl-1,3-diamino-2-propanol)platinum (IV)] | 32.0 mg/kg | 86.5% | 10.2 mg/kg | – | 176.5 mg/kg | 17.3 | – | –
3 | trans-bis (acetato) 1,1-cyclobutanedicarboxylato (1,3-diamino-2-propanol) platinum (IV) [Compound 5] | 64.0 mg/kg | 61.4% | 38.4 mg/kg | – | 353.0 mg/kg | 9.2 | – | –
4 | N.N.O=C([O-])C1(C(=O)[O-])CCC1.[Pt+2] [Carboplatin, carboplatin, reference compound] | 256.0 mg/kg | 75.3% | 119.9 mg/kg | – | 245.0 mg/kg | 2.0 | reduced renal toxicity | increased solubility in water
5 | 1,1-cyclobutanedicarboxylato trans-dihydroxo (1,3-diamino-2-propanol)platinum (IV) [Compound 1] | 32.0 mg/kg | 95.6% | < 8.0 mg/kg | – | > 200.0 mg/kg | > 25.0 | – | –
6 | O=C([O][Pt-2]12([O]C(=O)C(F)(F)F)([NH2+]CC(O)C[NH2+]1)[O]C(=O)C1(CCC1)C(=O)[O]2)C(F)(F)F (stereo not drawn) [Compound 18, 1,1-cyclobutanedicarboxylato trans-bis(trifluoroacetato) (1,3-diamino-2-propanol)platinum (IV)] | 32.0 mg/kg | 95.6% | 9.6 mg/kg | – | 176.8 mg/kg | 18.4 | – | –
